From publication PMC8750527 (Cancers, 2021)
Where two headings read alike, the source gives them in different places.

Columns and labels:
HDF [1] = experiment: MTT assay, 48 h exposure, human dermal fibroblasts; assay type: cell-based
Description: (§1) HDF (3000 cells), C8-D1A (5000 cells), D458 (5000 cells), DAOY (2000 cells), HD-MB03 (10,000 cells) and CHLA-01-Med (10,000 cells) were seeded at an approximate confluency of 50% in 96-well plates (Corning Inc., Corning, NY, USA) in 100 µL medium per well. A range from 50 nM to 150 µM of every drug was tested. The effects of the antiangiogenic compounds were measured using a 3-[4,5-dimethylthiazol-2yl]-diphenyltetrazolium bromide (MTT) colorimetric assay (Sigma, Lyon, France) according to the manufacturer’s instructions. When applicable, IC50 was calculated using the nonlinear regression method of the Prism 5 software (Graphpad Software Inc., San Diego, CA, USA). […] An MTT assay was conducted as described above to assess the fitness of the cells.

C8-D1A = experiment: MTT assay, 48 h exposure, murine primary astrocytes; assay type: cell-based
Description: as §1

DAOY = experiment: MTT assay, 48 h exposure, DAOY MB cells; assay type: cell-based, human; settings: for IC50: MTT, 48 h exposure, mean ± SEM
Description: as §1

HD-MB03 = experiment: MTT assay, 48 h exposure, HD-MB03 MB cells; assay type: cell-based, human; settings: for IC50: MTT, 48 h exposure, mean ± SEM
Description: as §1

D458 = experiment: MTT assay, 48 h exposure, D458 MB cells; assay type: cell-based, human; settings: for IC50: MTT, 48 h exposure, mean ± SEM
Description: as §1

CHLA-01-Med = experiment: MTT assay, 48 h exposure, CHLA-01-Med MB cells; assay type: cell-based, human
Description: as §1

MB cells = experiment: Cell viability, propidium iodine incorporation, MB cells; assay type: cell-based, human; settings: 48 h, 5 µM
Description: (§2) Cell viability assays were conducted using a propidium iodine incorporation technique with an ADAM-sHIT automated cell counter (NanoEnTek, Gyeonggi-do, Korea) according to the manufacturer’s protocol.

HDF [2] = experiment: Cell viability, propidium iodine incorporation, HDF; assay type: cell-based, human; settings: 48 h; axitinib, cabozantinib 5 µM, etoposide 1 µM
Description: as §2

C8-D1A astrocytes = experiment: Cell viability, propidium iodine incorporation, C8-D1A; assay type: cell-based, murine; settings: 48 h; axitinib, cabozantinib, sunitinib 5 µM, etoposide 1 µM
Description: as §2

**Q.** `COc1cc2nccc(Oc3ccc(NC(=O)C4(C(=O)Nc5ccc(F)cc5)CC4)cc3)c2cc1OC` [Cabozantinib, cabozantinib] was tested. Which IC50 (HDF [1]; Homo sapiens, HDF, Table 1, normal cells, mean ± SEM) did it give?
**A.** 4.1 ± 1.9 µM

**Q.** And the IC50 (C8-D1A; Mus musculus, C8-D1A, Table 1, normal cells, mean ± SEM, read-out: IC50 (µM) C8D1A)?
**A.** 4 ± 2.2 µM

**Q.** What about the IC50 (DAOY; Homo sapiens, Daoy, Table 1) of the same molecule?
**A.** 8.3 ± 1.2 µM

**Q.** And the “Specificity Index relative to C8D1A, DAOY” value (DAOY; ratio IC50 C8-D1A / IC50 DAOY)?
**A.** 0.48

**Q.** What about the “Specificity Index relative to HDF, DAOY” value (DAOY; ratio IC50 HDF / IC50 DAOY) of the same molecule?
**A.** 0.49

**Q.** And the IC50 (HD-MB03; Homo sapiens, HD-MB03, Table 1)?
**A.** 0.78 ± 0.2 µM

**Q.** And the “Specificity Index relative to C8D1A, HDMB” value (HD-MB03; ratio IC50 C8-D1A / IC50 HD-MB03)?
**A.** 5.13

**Q.** What about the “Specificity Index relative to HDF, HD-MB03” value (HD-MB03; ratio IC50 HDF / IC50 HD-MB03) of the same molecule?
**A.** 5.26

**Q.** What about the IC50 (D458; Homo sapiens, Table 1) of the same molecule?
**A.** 5.1 ± 1.6 µM

**Q.** What about the “Specificity Index relative to C8D1A, D458” value (D458; ratio IC50 C8-D1A / IC50 D458) of the same molecule?
**A.** 0.78

**Q.** And the “Specificity Index relative to HDF, D458” value (D458; ratio IC50 HDF / IC50 D458)?
**A.** 0.80

**Q.** What about the IC50 (CHLA-01-Med; Homo sapiens, Table 1, MTT, 48 h exposure, mean ± SEM) of the same molecule?
**A.** 11.4 ± 2.1 µM

**Q.** What about the “Specificity Index relative to C8D1A, CHLA-01-Med” value (CHLA-01-Med; ratio IC50 C8-D1A / IC50 CHLA-01-Med) of the same molecule?
**A.** 0.35

**Q.** What about the “Specificity Index relative to HDF, CHLA-01-Med” value (CHLA-01-Med; ratio IC50 HDF / IC50 CHLA-01-Med) of the same molecule?
**A.** 0.36

**Q.** What about the “viability of MB cells” value (MB cells) of the same molecule?
**A.** decreased the viability of most MB cells

**Q.** What about the “viability of HDF normal cells” value (HDF [2]) of the same molecule?
**A.** no effect on the viability

**Q.** What about the “viability of C8-D1A normal cells” value (C8-D1A astrocytes) of the same molecule?
**A.** no effect on the viability

**Q.** What does the source list for `N.N.O=C([O-])C1(C(=O)[O-])CCC1.[Pt+2]` [Carboplatin, carboplatin]?
**A.** IC50 (HDF [1]; Table 3, mean ± SEM): > 20 µM; IC50 (C8-D1A; Table 3, mean ± SEM): > 20 µM; IC50 (DAOY; Table 3): > 20 µM; IC50 (HD-MB03; Table 3): > 20 µM; IC50 (D458; Table 3): > 20 µM
